# Measured values reported in patent US20190352663A1 (priority 2018, published 2019).
# Legend:
# CsPR1 = format: in vivo, C. sinensis; details: 2 mM sprayed on leaves; 48 hours
# CsSAG12-4 = format: in vivo, C. sinensis; details: 2 mM sprayed on leaves; 48 hours
# CsSAG12-1 = format: in vivo, C. sinensis; details: 2 mM sprayed on leaves; 48 hours; not statistically significant
# CsAALP = format: in vivo, C. sinensis; details: 2 mM sprayed on leaves; 48 hours; not statistically significant
# PtoDC3000Δcip1 = format: cell-based, Pseudomonas syringae pv. tomato; details: 100 μg/mL
# [1] = target: CsRD21a-Flag expressed in N. benthamiana and secreted into the apoplast (Citrus sinensis); test: cell-based or functional assay
# [2] = target: papain (Sigma-Aldrich), a PLCP from papaya (papaya) (UniProt P00784); test: cell-based or functional assay
# UniProt P00784, sequence (P00784 134-345 limits assumed): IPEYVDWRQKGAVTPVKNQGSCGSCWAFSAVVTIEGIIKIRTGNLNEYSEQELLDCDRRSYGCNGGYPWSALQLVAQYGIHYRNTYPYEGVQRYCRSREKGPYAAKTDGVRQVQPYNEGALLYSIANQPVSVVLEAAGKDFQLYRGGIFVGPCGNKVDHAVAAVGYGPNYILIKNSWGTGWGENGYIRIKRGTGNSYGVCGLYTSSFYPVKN
molecule,measurement,setting,value
"O=C(O)c1ccccc1O [SA, salicylic acid]",expression of CsPR1,CsPR1,increase
same,expression of CsSAG12-4,CsSAG12-4,significantly up-regulated
same,expression of CsSAG12-1,CsSAG12-1,trend of increased expression
same,expression of CsAALP,CsAALP,trend of increased expression
papain,inhibitory effect on bacterial growth in artificial media,PtoDC3000Δcip1,not observed
purified recombinant SDE1 protein (tag-free after removal of the His-SUMO tag),"CsRD21a activity (ABPP, ImageJ signal intensity) (% reduction at 0.8 µM SDE1)",[1],9
same,"CsRD21a activity (ABPP, ImageJ signal intensity) (% reduction at 1.6 µM SDE1)",[1],62
same,"CsRD21a activity (ABPP, ImageJ signal intensity) (% reduction at 3.2 µM SDE1)",[1],96
same,DCG-04 labeling of papain (ABPP) (% reduction at 1.6 µM SDE1),[2],53
